Data: patent EP2181708A1, “Use of Valproate for reducing CHOP levels, particularly in a mammal having SCI” (Universitat Autonoma de Barcelona, priority 2008, dated 2010)

Key:
spinal cord = assay: Histological analysis of lesion volume, tissue sparing and myelin after SCI; assay type: in vivo, Sprague-Dawley rats
Method: (§1) Adult females Sprague-Dawley rats aged 11 weeks (220-250 g) were anesthetized with pentobarbital (40 mg/kg i.p.). When unresponsive, the vertebral column was exposed and a laminectomy carried out at T8-T9 levels. Rostral T7 and caudal T10 vertebral bodies were clamped with Adson stabilizing forceps, and carefully adjusted to level the spinal cord in the horizontal plane. A contusion injury was performed using the Infinite Horizon impactor device (Precision Scientific Instruments, Lexington, KY). The stainless steel impounder tip was placed at 3-4 mm above the exposed spinal cord, and then a fast impact produced applying forces of 150 or 250 kilodynes (KDyn) to the exposed spinal cord. The wound was sutured with 5-0 silk thread in the muscular plane and the skin was closed with small clips and disinfected with povidone iodine solution. Sham-operated animals received the same surgical procedure but sustained no impact injury; the spinal cord was left exposed for 5 min. The animals were maintained in a warm environment until full recovery, and received preventive antibiotic (amoxicyline) and analgesic (buprenorphine) treatment. All animals were kept under standard conditions of light and temperature and fed with food and water ad libitum. The procedures involving animals were approved by the Ethics Committee of our institution, and followed the European Communities Council Directive 86/609/EEC.
VPA was intraperitoneally administered at an initial dose of 150 mg/kg by 3 h after surgery, and then a dose of 300 mg/Kg either every 24 h or every 12 h during the first week post-surgery, following by a dose of 300 mg/Kg every 24 h for the next two weeks. Groups of rats subjected to SCI or sham operation received VPA or saline injections following the same regime. Experiments were approved by the Ethics Committee at the Universitat Autònoma de Barcelona, and followed the European Communities Council Directive 86/609/EEC
At 3 or 35 days post-surgery, rats were perfused transcardially with 4% paraformaldehyde in 0.1M phosphate buffer saline (PBS, pH 7.4). […]

CHOP = assay: Tunicamycin-induced ER stress in HEK cell line, Western blot of CHOP; assay type: cell-based; settings: 3 µg/ml tunicamycin, valproate
Method: Primary fibroblasts obtained from rat sciatic nerve and HEK cell line were cultured in Dulbecco's modified Eagle's/F-12 medium supplemented with 10% fetal calf serum (Gibco). Fibroblasts were treated with 3 µg/mL of tunicamycin (Sigma) for 4 h and harvested in RIPA buffer for protein extraction.
We have recently reported that SCI triggers an unbalanced UPR characterized by unchanged levels of BiP/Grp78 levels but progressive accumulation of the pro-apoptotic protein CHOP, with maximal CHOP levels found at 3 days post-injury in the weight-drop contusion model (Penas et al, 2007). In this study, we used a contusion model using an impactor device to specifically control the force (either 150 KDyn or 250 KDyn) to be apply on the T8 laminectomized spinal cord segment. We analyzed the spinal cord 8 mm-length segment that includes the lesion epicenter from sham-operated animals and from VPA treated or vehicle treated SCI animals at 3 days after operation. […] Thus, we increased the amount of VPA administered to 300 mg/kg every 12 h, as reported previously for a brain stroke rat model (Kim et al, 2007), and analyzed the effect using two different contusion forces of 150 and 250 KDyn. We observed that the levels of CHOP were directly proportional to the severity of the lesion; the more severe, the higher the level. […]

ATF4 = assay: Western blot of ATF4 in spinal cord after contusion SCI; assay type: in vivo, Sprague-Dawley rats; settings: VPA-treated injured spinal cords compared with vehicle-treated ones
Method: as §1, with “The animals were maintained in a warm environment until full recovery, and received preventive antibiotic (amoxicyline) and analgesic (buprenorphine) treatment. All animals were kept under standard conditions of light and temperature and fed with food and water ad libitum. The procedures involving animals were approved by the Ethics Committee of our institution, and followed the European Communities Council Directive 86/609/EEC.” left out
Rats were re-anesthetised and decapitated at 3 dpo for sample preparation. […] After clearance, protein concentration was measured by the BCA method assay (BCA Protein Assay kit, Pierce). […] The membrane was visualized by enhanced chemiluminiscence (ECL) method and the images analyzed with Gene Snap and Gene Tools software, and Gene Genome apparatus (Syngene). […]

[1] = epicenter and adjacent section of the spinal cord, 35 days

CCCC(CCC)C(=O)O [VPA, 2-propylpentanoic acid]
extent of myelin loss (spinal cord; 2 mm from the epicenter, cresyl violet and luxol fast blue, 35 dpo): markedly reduced | area of total tissue preserved (spinal cord; [1]): significantly increased | area of white matter preserved (spinal cord; [1]): significantly increased | CHOP accumulation promoted by tunicamycin (CHOP): can be attenuated | levels of ATF4 (ATF4): significantly higher levels
